What was measured:
Rat NSCs = test: NG2 immunocytochemistry cell count: differentiation of NSCs to NG2 positive cells (OPCs); type: cell-based; conditions: NSC neurospheres, mean±S.D.
Protocol: (§1) Rat NSCs isolation and culture were performed as described by Weiss et al (Weiss et al., 1996). Briefly, the cortex of 1- to 2-day-old newborn SD rats were removed and placed into sterile chilled Hank's Balanced Salt Solution. After the meninges were carefully removed, tissues were cut into tiny pieces and gently triturated with a Pasteur pipette at least 10-15 times. The suspended tissue was centrifuged at 500 g for 5 min and the pellets were re-suspended in a proliferation medium (DMEM/F12 nutrient (1:1) with additional 2% B27 (Invitrogen Corporation, Carlsbad, Calif.) supplement and 20 ng/mL bFGF (PeproTech, Rocky Hill, N.J.)). The cells were plated at a density of 50 cells/mL in non-coated […] flasks. Every 4 days, bFGF was added along with a partial medium change. After 7 days in vitro, cells formed floating neurospheres. To subculture NSCs, the neurospheres were centrifuged at 600 g for 5 min when the diameters of neurospheres reached a size of approximately 100-200 μm; they were then re-suspended in fresh medium and mechanically dissociated into single cells. Single cells subsequently were seeded into proliferation medium at a density of 10 cells/mL per flask. This procedure produced a second generation of neurospheres, and additional generations of NSCs were produced using this same procedure.
Neurospheres were plated into 12-well plates on poly-D-lysine coated 35 mm dishes at a density of 10-20 spheres per dish in 1.5 mL medium. 1 hour after plating, compounds were added at a final concentration 100 μM unless otherwise indicated. After 5 days, cells were examined with Phase contrast image or immunocytochemistry.
Identification of the different kinds of cells was performed using indirect immunocytochemistry. Cells on dishes were fixed with 4% paraformaldehyde at room temperature for 20 min and washed three times in succession with 0.01 M PBS for 5 min each time. Cells were then treated with 0.3% Triton 100 containing 10% normal goat serum at room temperature for 30 min (Xu et al., 2006). Cells were then incubated with primary antibodies at 4° C. for 12-16 h and washed three times with 0.01 M phosphate buffered saline (PBS) for 5 min each time. FITC-conjugated secondary antibodies were added to the cells, and the cells were incubated at 37° C. for 40 min. After three 5 min PBS washes, Hochest 33258 nuclear stain was added at room temperature for 10 min, followed by two more 5 min PBS rinses. The dishes were examined by a fluorescence microscopy. The primary antibodies included anti-GFAP (1:200; rabbit; Promega), anti-nestin (1:500; Mouse; Chemicon); anti-NG2(1:200; Mouse; Chemicon), anti-MBP (1:50; Mouse; Chemicon), anti-04 (1:100; Mouse; Chemicon), anti-RIP (1:100; Mouse; Chemicon), anti-olig2 (1:100; rabbit; Abcam). The secondary antibodies were FITC-labeled antibodies to rabbit IgG (1:200) and TRITIC-labeled antibodies to mouse IgG (1:200). Immunostained preparations were examined with an IX70 Olympus microscope equipped for phase contrast and epi-fluorescence. Light from a 75 W xenon arc lamp (AH2-RX, Olympus) passed through filter sets (Chroma) to generate excited light for Hochest 33258, FITC and TRITIC stains. All image acquisitions were finished with computer-controlled CCD (Micromax 5 MHz system, Roper Princeton Instruments) and MetaMorph Imaging System version 3.6 (Universal Imaging Corporation). To determine the number of cells expressing a particular antigen, 100 fields per sample were examined and totaled. Observers without knowledge of the treatment condition counted the numbers of positive cells for NG2, compared to total numbers of progeny of NSCs determined by counting Hochest 33258 staining cell nuclei. Results are given as mean±S.D. of data for six samples from three independent experiments. Statistical analyses were carried out using Student's t-test with SPSS software (Version 10.1). […]

NSCs = test: Primary compound screen of NSCs, phase contrast morphology; type: cell-based, rat; conditions: 100 μM, 5 days, phase contrast microscope
Protocol: as §1, with “procedure. […]” for “procedure.”

| Molecule | The ratio of NG2 positive cells of the total cells (%) (Rat NSCs; Dose 1 μM) | The ratio of NG2 positive cells of the total cells (%) (Rat NSCs; Dose 10 μM) | The ratio of NG2 positive cells of the total cells (%) (Rat NSCs; Dose 100 μM) | The ratio of NG2 positive cells of the total cells (%) (Rat NSCs; Dose 1 mM) | generation of round bipolar or multipolar morphology cells (probably OPCs) (NSCs) | The ratio of NG2 positive cells of the total cells (%) (Rat NSCs; Dose 1 μM, listed as daphnoretin) | The ratio of NG2 positive cells of the total cells (%) (Rat NSCs; Dose 10 μM, listed as daphnoretin) | The ratio of NG2 positive cells of the total cells (%) (Rat NSCs; Dose 100 μM, listed as daphnoretin) | The ratio of NG2 positive cells of the total cells (%) (Rat NSCs; Dose 1 mM, listed as daphnoretin) |
| --- | --- | --- | --- | --- | --- | --- | --- | --- | --- |
| O=c1ccc2ccc(O)cc2o1 [7-hydroxycoumarin] | 68 ± 6.5 | 76 ± 6.6 | 89 ± 9.3 | 92 ± 8.7 |  |  |  |  |  |
| O=c1ccc2cc(O)c(O)cc2o1 [Aesculetin] | 53 ± 2.4 | 63 ± 2.9 | 68 ± 2.7 | 75 ± 1.6 |  |  |  |  |  |
| COc1cc2oc(=O)cc(-c3ccccc3)c2cc1O [Dalbergin] | 1 | 1 | 1 | 1 |  |  |  |  |  |
| COc1cc2cc(Oc3ccc4ccc(=O)oc4c3)c(=O)oc2cc1OC [Isodaphnoretin] | 15.6 ± 1.8 | 1 | 1 | 1 |  |  |  |  |  |
| COc1cc(O)c2c(=O)cc(-c3ccc(O)cc3)oc2c1 [Genkwanin] | 23 ± 2.3 | 1 | 1 | 1 |  |  |  |  |  |
| O=c1ccc2ccc(Oc3cc4ccc(O)cc4oc3=O)cc2o1 [Edgeworin] | 60 ± 2.6 | 63 ± 2.9 | 68 ± 3.5 | 81 ± 3.1 |  |  |  |  |  |
| COc1cc2cc(Oc3ccc4ccc(=O)oc4c3)c(=O)oc2cc1O [Daphnoretin] | 65 ± 5.3 | 87 ± 7.5 | 92 ± 8.6 | 95 ± 6.9 | markedly enhance the generation of round bipolar or multipolar morphology cells | 65±5.3 | 87±7.5 | 92±8.6 | 95±6.9 |
| COc1cc2ccc(=O)oc2cc1O [Scopoletin] | 62 ± 5.6 | 63 ± 6.3 | 70 ± 6.9 | 68 ± 6.7 |  |  |  |  |  |
| C[C@@H]1O[C@@H](Oc2ccc3ccc(=O)oc3c2-c2c(O)ccc3ccc(=O)oc23)[C@H](O)[C@H](O)[C@H]1O [Edgeworoside C] | 1 | 1 | 1 | 1 |  |  |  |  |  |
| COc1cc2cc(Oc3ccc4ccc(=O)oc4c3)c(=O)oc2cc1O[C@@H]1O[C@H](CO)[C@@H](O)[C@H](O)[C@H]1O [Daphnoretin-7-O-β-D-glucopyranoside] | 1 | 1 | 1 | 1 |  |  |  |  |  |
| COc1ccc2ccc(=O)oc2c1 [7-methoxy coumarin] | 16.7 ± 2.2 | 1 | 1 | 1 |  |  |  |  |  |
| Isopsoralen | 21 ± 1.6 | 1 | 1 | 1 |  |  |  |  |  |
| O=c1ccc2cc(O[C@@H]3O[C@H](CO)[C@@H](O)[C@H](O)[C@H]3O)c(O)cc2o1 [Esculetin-6-β-D-glucopyranoside] | 67 ± 4.6 | 72 ± 3.5 | 70 ± 3.9 | 85 ± 5.2 |  |  |  |  |  |
